Experimental findings from US6906095B2, “Indolylalkylidenehydrazine-carboximidamide derivatives as 5-hydroxytryptamine-6 ligands” (Wyeth, priority 2002, dated 2005) are described below.

The experiment addresses T1, human cloned 5-HT6 receptors (Homo sapiens, UniProt P50406).
T1 construct: expressed in transfected cells; host or cells: Hela cells
Description: 5-HT6 binding affinity, [3H]-LSD displacement in membranes of Hela cells. The procedure: The affinity of test compounds for the serotonin 5-HT6 receptor is evaluated in the following manner. Cultured Hela cells expressing human cloned 5-HT6 receptors are harvested and centrifuged at low speed (1,000×g) for 10.0 min to remove the culture media. The harvested cells are suspended in half volume of fresh physiological phosphate buffered saline solution and recentrifuged at the same speed. This operation is repeated. The collected cells are then homogenized in ten volumes of 50 mM Tris.HCl (pH 7.4) and 0.5 mM EDTA. The homogenate is centrifuged at 40,000×g for 30.0 min and the precipitate is collected. The obtained pellet is resuspended in 10 volumes of Tris.HCl buffer and recentrifuged at the same speed. The final pellet is suspended in a small volume of Tris.HCl buffer and the tissue protein content is determined in aliquots of 10-25 μl volumes. Bovine Serum Albumin is used as the standard in the protein determination according to the method described in Lowry et al., J. Biol. Chem., 193:265 (1951). The volume of the suspended cell membranes is adjusted to give a tissue protein concentration of 1.0 mg/ml of suspension. The prepared membrane suspension (10 times concentrated) is aliquoted in 1.0 ml volumes and stored at −70° C. until used in subsequent binding experiments.
The reaction is allowed to proceed in the dark for 120 min at room temperature, at which time, the bound ligand-receptor complex is filtered off on a 96 well unifilter with a Packard Filtermate® 196 Harvester. The bound complex caught on the filter disk is allowed to air dry and the radioactivity is measured in a Packard TopCount® equipped with six photomultiplier detectors, after the addition of 40.0 μl Microscint®-20 scintillant to each shallow well. The unifilter plate is heat-sealed and counted in a PackardTopCount® with a tritium efficiency of 31.0%.
Specific binding to the 5-HT6 receptor is defined as the total radioactivity bound less the amount bound in the presence of 10.0 μM unlabeled methiothepin. Binding in the presence of varying concentrations of test compound is expressed as a percentage of specific binding in the absence of test compound. The results are plotted as logit % bound versus log concentration of test compound. Nonlinear regression analysis of data points with a computer assisted program Prism® yields both the IC50 and the Ki values of test compounds with 95% confidence limits.
The amount of displacement by the test compound is given in percent (%) inhibition and is derived from the following equation: [formula] where B0 is the amount of CPM bound in the presence of the testing agent. NSB represents the CPM bound in the presence of a saturating concentration of a displacer and TB represents the total amount of CPM bound at zero (0) concentration of test compound.
Alternatively, a linear regression line of decline of data points is plotted, from which the IC50 value can be read off and the Ki value determined by solving the following equation: [formula] where L is the concentration of the radioactive ligand used and KD is the dissociation constant of the ligand for the receptor, both expressed in nM.

Where [1] appears, read: test compound dose 100 nM, [3H]-LSD 3.0 nM.

T1 sequence (P50406 whole entry): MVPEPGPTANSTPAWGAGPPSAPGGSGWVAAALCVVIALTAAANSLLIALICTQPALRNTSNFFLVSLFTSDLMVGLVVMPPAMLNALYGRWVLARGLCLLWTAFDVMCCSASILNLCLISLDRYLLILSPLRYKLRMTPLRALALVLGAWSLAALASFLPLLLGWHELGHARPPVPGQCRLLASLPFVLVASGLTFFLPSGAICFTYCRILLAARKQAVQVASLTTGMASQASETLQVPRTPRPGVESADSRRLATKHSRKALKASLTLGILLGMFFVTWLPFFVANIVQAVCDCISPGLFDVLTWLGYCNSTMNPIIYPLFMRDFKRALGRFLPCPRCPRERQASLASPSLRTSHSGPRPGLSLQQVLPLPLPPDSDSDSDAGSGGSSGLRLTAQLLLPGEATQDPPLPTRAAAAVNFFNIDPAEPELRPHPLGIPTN

`CC(=NNC(=N)N)c1cn(S(=O)(=O)c2ccccc2Br)c2ccccc12` [Example 31, 2-(1-{1-[(2-bromophenyl)sulfonyl]-1H-indol-3-yl}ethylidene)hydrazinecarboximidamide]: the Ki turned out to be 13 nM. Under setting [1], this molecule registered an inhibition at 0.1 µM of 83.3%. `CC(=NNC(=N)N)c1cn(S(=O)(=O)c2cccc(Br)c2)c2ccccc12` [Example 32, 2-(1-{1-[(3-bromophenyl)sulfonyl]-1H-indol-3-yl}ethylidene)hydrazinecarboximidamide] registered a Ki of 26 nM. For the same molecule, under setting [1], testing at 0.1 µM gave an inhibition of 76.2%. In the case of `CC(=NNC(=N)N)c1cn(S(=O)(=O)c2ccc(Br)s2)c2ccccc12` [Example 33, 2-(1-{1-[(5-bromothien-2-yl)sulfonyl]-1H-indol-3-yl}ethylidene)hydrazinecarboximidamide], the Ki amounted to 19 nM. The same molecule yielded an inhibition at 0.1 µM under setting [1] of 76.4%. Molecule `COc1ccc(Cl)cc1S(=O)(=O)n1cc(C(C)=NNC(=N)N)c2ccccc21` [Example 34, 2-(1-{1-[(5-chloro-2-methoxyphenyl)sulfonyl]-1H-indol-3-yl}ethylidene)hydrazinecarboximidamide] gave an inhibition at 0.1 µM under setting [1] of 48%.

`CC(=NNC(=N)N)c1cn(S(=O)(=O)c2sc3ccc(Cl)cc3c2C)c2ccccc12` [Example 35, 2-(1-{1-[(5-chloro-3-methyl-1-benzothien-2-yl)sulfonyl]-1H-indol-3-yl}ethylidene)hydrazinecarboximidamide] yielded an inhibition at 0.1 µM under setting [1] of 39.1%. For the molecule `CC(=NNC(=N)N)c1cn(S(=O)(=O)c2c(Cl)nc3sccn23)c2ccccc12` [Example 36, 2-(1-{1-[(6-chloroimidazo[2,1-b][1,3]thiazol-5-yl)sulfonyl]-1H-indol-3-yl}ethylidene)hydrazinecarboximidamide], affinity was put at a Ki of 8 nM. Besides, the inhibition at 0.1 µM under setting [1] is 86.4%.

`CC(=NNC(=N)N)c1cn(S(=O)(=O)c2ccc(Cl)s2)c2ccccc12` [Example 37, 2-(1-{1-[(5-chlorothien-2-yl)sulfonyl]-1H-indol-3-yl}ethylidene)hydrazinecarboximidamide] had an inhibition constant Ki of 25 nM. For the same molecule, the inhibition at 0.1 µM under setting [1] came to 75.2%. `CC(=NNC(=N)N)c1cn(S(=O)(=O)c2cccc3c(N(C)C)cccc23)c2ccccc12` [Example 38, 2-[1-(1-{[5-(dimethylamino)-1-naphthyl]sulfonyl}-1H-indol-3-yl)ethylidene]hydrazinecarboximidamide] returned an inhibition at 0.1 µM under setting [1] of 25.8%. `CC(=NNC(=N)N)c1cn(S(=O)(=O)c2cc(Br)c(Br)s2)c2ccccc12` [Example 39, 2-(1-{1-[(4,5-dibromothien-2-yl)sulfonyl]-1H-indol-3-yl}ethylidene)hydrazinecarboximidamide] registered an inhibition at 0.1 µM under setting [1] of 62.1%. Same read-out and setting: the result for `CC(=NNC(=N)N)c1cn(S(=O)(=O)c2cc(Cl)ccc2Cl)c2ccccc12` [Example 40, 2-(1-{1-[(2,5-dichlorophenyl)sulfonyl]-1H-indol-3-yl}ethylidene)hydrazinecarboximidamide] reads 33.3%. For `CC(=NNC(=N)N)c1cn(S(=O)(=O)c2cc(Cl)sc2Cl)c2ccccc12` [Example 41, 2-(1-{1-[(2,5-dichlorothien-3-yl)sulfonyl]-1H-indol-3-yl}ethylidene)hydrazinecarboximidamide], the inhibition at 0.1 µM under setting [1] stood at 55%. In turn, `CC(=NNC(=N)N)c1cn(S(=O)(=O)c2cc(Cl)c(Cl)s2)c2ccccc12` [Example 42, 2-(1-{1-[(4,5-dichlorothien-2-yl)sulfonyl]-1H-indol-3-yl}ethylidene)hydrazinecarboximidamide] showed an inhibition at 0.1 µM under setting [1] of 46.3%.

`CC(=NNC(=N)N)c1cn(S(=O)(=O)c2c(C)noc2C)c2ccccc12` [Example 43, 2-(1-{1-[(3,5-dimethylisoxazol-4-yl)sulfonyl]-1H-indol-3-yl}ethylidene)hydrazinecarboximidamide] registered an inhibition at 0.1 µM under setting [1] of 68.9%. `CC(=NNC(=N)N)c1cn(S(=O)(=O)c2ccc(F)cc2)c2ccccc12` [Example 44, 2-(1-{1-[(4-fluorophenyl)sulfonyl]-1H-indol-3-yl}ethylidene)hydrazinecarboximidamide] yielded a Ki of 33 nM. This molecule also returned an inhibition at 0.1 µM under setting [1] of 75.5%. As to `CC(=NNC(=N)N)c1cn(S(=O)(=O)c2ccc(-c3cc(C(F)(F)F)n(C)n3)s2)c2ccccc12` [Example 45, 2-{1-[1-({5-[1-methyl-5-(trifluoromethyl)-1H-pyrazol-3-yl]thien-2-yl}sulfony)-1H-indol-3-yl]ethylidene}hydrazinecarboximidamide], the “% Inhibition” value under setting [1] is 23.5%. The molecule `CC(=NNC(=N)N)c1cn(S(=O)(=O)c2cc([N+](=O)[O-])ccc2C)c2ccccc12` [Example 46, 2-(1-{1-[(2-methyl-5-nitrophenyl)sulfonyl]-1H-indol-3-yl}ethylidene)hydrazinecarboximidamide] came in with an inhibition at 0.1 µM under setting [1] of 41%. `CC(=NNC(=N)N)c1cn(S(=O)(=O)c2cn(C)cn2)c2ccccc12` [Example 47, 2-(1-{1-[(1-methyl-1H-imidazol-4-yl)sulfonyl]-1H-indol-3-yl}ethylidene)hydrazinecarboximidamide] yielded a Ki of 46 nM. Further, under setting [1], the inhibition at 0.1 µM was 81.1%. With `CC(=NNC(=N)N)c1cn(S(=O)(=O)c2ccc(S(C)(=O)=O)cc2)c2ccccc12` [Example 48, 2-[1-(1-{[4-(methylsulfonyl)phenyl]sulfonyl}-1H-indol-3-yl)ethylidene]hydrazinecarboximidamide], the inhibition at 0.1 µM under setting [1] amounted to 43.9%. The molecule `CSc1nccc(-c2ccc(S(=O)(=O)n3cc(C(C)=NNC(=N)N)c4ccccc43)s2)n1` [Example 49, 2-{1-[1-({5-[2-(methylthio)pyrimidin-4-yl]thien-2-yl}sulfonyl)-1H-indol-3-yl]ethylidene}-hydrazinecarboximidamide] yielded an inhibition at 0.1 µM under setting [1] of 33%. Molecule `CC(=NNC(=N)N)c1cn(S(=O)(=O)c2cccc3ccccc23)c2ccccc12` [Example 50, 2-{1-[1-(1-naphthylsulfonyl)-1H-indol-3-yl]ethylidene}hydrazinecarboximidamide] had an inhibition at 0.1 µM under setting [1] of 63.5%.

As for `CC(=NNC(=N)N)c1cn(S(=O)(=O)c2ccccc2[N+](=O)[O-])c2ccccc12` [Example 51, 2-(1-{1-[(2-nitrophenyl)sulfonyl]-1H-indol-3-yl}ethylidene)hydrazinecarboximidamide], the inhibition at 0.1 µM under setting [1] is 70.1%. Still for that read-out and setting: under `CC(=NNC(=N)N)c1cn(S(=O)(=O)c2ccc([N+](=O)[O-])cc2)c2ccccc12` [Example 52, 2-(1-{1-[(4-nitrophenyl)sulfonyl]-1H-indol-3-yl}ethylidene)hydrazinecarboximidamide] stands 28.2%; under `CC(=NNC(=N)N)c1cn(S(=O)(=O)c2ccc(-c3ccccn3)s2)c2ccccc12` [Example 53, 2-(1-{1-[(5-pyridin-2-ylthien-2-yl)sulfonyl]-1H-indol-3-yl}ethylidene)hydrazinecarboximidamide], 38.4%. On the same count and under the same terms, the result for `CC(=NNC(=N)N)c1cn(S(=O)(=O)c2ccc(OC(F)(F)F)cc2)c2ccccc12` [Example 54, 2-[1-(1-{[4-(trifluoromethoxy)phenyl]sulfonyl}-1H-indol-3-yl)ethylidene]hydrazinecarboximidamide] reads 26.2%; that for `CC(=NNC(=N)N)c1cn(S(C)(=O)=O)c2ccccc12` [Example 55, 2-{1-[1-(methylsulfonyl)-1H-indol-3-yl]ethylidene}hydrazinecarboximidamide], 68.2%.

In general, Ki refers to a dissociation constant, usually derived from enzyme kinetics or from competition with a known ligand. Read a high Ki as weaker binding. By inhibition is commonly meant how much of the control response was suppressed. High values mean a strong effect, low ones a weak effect. One may read the % Inhibition as the share of the control response that was lost under treatment. A low value points to a weak effect.
